From ChEMBL document CHEMBL1201862, “PubChem BioAssay data set” (2004)
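In this assay, cells in 96-well plates receive the compound at five concentrations for 48 hours. Endpoints are linearly interpolated between the surrounding concentrations. The concentration for 50% growth inhibition is given as GI50.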 Active and inactive are the calls of the source. Rule as the data show it: active = GI50 up to about 1.1 µM and inactive = higher.

Key:
Test in all cases: inhibition of tumour cell growth, NCI panel, 48 h
[1] = tested on: CAKI-1
[2] = tested on: KM12
[3] = tested on: U-251
[4] = tested on: Hs-578T
[5] = tested on: NCI-H23
[6] = tested on: UACC-257
[7] = tested on: LOX IMVI
[8] = tested on: RPMI-8226
[9] = tested on: PC-3
[10] = tested on: K562
[11] = tested on: SK-MEL-2
[12] = tested on: M14
[13] = tested on: SF-539
[14] = tested on: OVCAR-3
[15] = tested on: HT-29
[16] = tested on: 786-0
[17] = tested on: MDA-N
[18] = tested on: SN12C
[19] = tested on: SR
[20] = tested on: BT-549

Measured: GI50

COc1ccc(C(=O)/C=C2\C(=O)Nc3ccc(Br)cc32)cc1
inactive: [1] 8.63 µM | [2] 3.21 µM | [3] 14.2 µM | [4] 13.8 µM | [5] 4.27 µM | [6] 11.3 µM | [7] 1.99 µM | [8] 1.72 µM | [9] 6.68 µM | [10] 5.07 µM | [11] 16.1 µM | [12] 12 µM | [13] 7.93 µM | [14] 2.97 µM | [15] 1.82 µM | [16] 1.97 µM | [17] 5.81 µM | [18] 2.88 µM | [19] 2.96 µM | [20] 5.75 µM

CCOC(=O)/C=C(\C(=O)OCC)n1cc(C)c(=O)n(Cc2cn(COCCOC(C)=O)nn2)c1=O
inactive: [1] 2.84 µM | [2] 16.2 µM | [3] 16.8 µM | [4] 17.1 µM | [5] 14.7 µM | [6] 17.4 µM | [7] 15.9 µM | [8] 5.09 µM | [9] 20 µM | [10] 5.69 µM | [11] 17.3 µM | [13] 3.61 µM | [14] 13.2 µM | [15] 7.33 µM | [16] 5.46 µM | [17] 20.2 µM | [18] 18.1 µM | [19] 1.44 µM | [20] 10.6 µM

Clc1cc2ncn(C3CCCCO3)c2cc1Cl (stereo not drawn)
inactive: [1] 39.4 µM | [2] 14.2 µM | [3] 39.5 µM | [4] 23.6 µM | [5] 70.3 µM | [7] 32.5 µM | [8] 66.8 µM | [9] 34.6 µM | [10] 46.2 µM | [11] > 100 µM | [12] 71.8 µM | [13] 96.4 µM | [14] 41 µM | [15] 35.9 µM | [16] 71.6 µM | [17] 65.8 µM | [18] 99.1 µM | [19] 28.1 µM | [20] 22.2 µM

OCC1OC(N2CCN(C3OC(CO)C(O)C(O)C3O)CC2)C(O)C(O)C1O (stereo not drawn)
inactive: [1] > 100 µM | [2] > 100 µM | [3] > 100 µM | [4] > 100 µM | [5] > 100 µM | [6] > 100 µM | [7] > 100 µM | [8] > 100 µM | [9] > 100 µM | [10] > 100 µM | [11] > 100 µM | [12] > 100 µM | [13] > 100 µM | [14] > 100 µM | [15] > 100 µM | [16] > 100 µM | [17] > 100 µM | [18] > 100 µM | [19] > 100 µM | [20] > 100 µM

N#CCC(=O)N/N=C(\CCN1CCCC1)CC(c1ccccc1)c1c(O)c2ccccc2oc1=O (stereo not drawn)
inactive: [1] > 95.3 µM | [2] > 63.7 µM | [3] 82.6 µM | [4] 63.7 µM | [5] 97.1 µM | [6] > 70.6 µM | [7] > 41.3 µM | [8] 32.9 µM | [9] 64.7 µM | [10] 62.1 µM | [11] > 61.1 µM | [12] 98.6 µM | [13] > 88.5 µM | [14] 65.3 µM | [15] > 88.7 µM | [16] > 100 µM | [17] 58.6 µM | [18] > 100 µM | [19] 29.4 µM | [20] 47.5 µM

OCCCCn1cc(Cn2ncc3c(NCc4ccccc4)ncnc32)nn1
inactive: [1] > 100 µM | [2] > 100 µM | [3] > 100 µM | [4] > 100 µM | [5] > 100 µM | [6] > 100 µM | [7] > 100 µM | [8] > 100 µM | [9] > 100 µM | [10] 44.3 µM | [11] > 100 µM | [12] > 100 µM | [13] > 100 µM | [14] > 100 µM | [15] > 100 µM | [16] > 100 µM | [17] 42.8 µM | [18] > 100 µM | [19] 15.9 µM | [20] > 100 µM

COC(=O)c1ccc(C(=O)NC(Cc2ccc(Oc3cc(CC(NC(=O)c4ccccc4C(=O)OC)C(=O)OC)ccc3OC)cc2)C(=O)OC)cc1 (stereo not drawn)
inactive: [1] > 100 µM | [2] > 100 µM | [4] 4.21 µM | [5] > 100 µM | [6] > 100 µM | [7] > 100 µM | [8] > 100 µM | [9] > 100 µM | [10] > 100 µM | [11] 77.8 µM | [12] > 100 µM | [13] 63.5 µM | [14] > 100 µM | [15] > 100 µM | [16] > 100 µM | [17] > 100 µM | [18] > 100 µM | [19] > 100 µM | [20] 74.8 µM

CC(C)/C(Cl)=N\OC(=O)Nc1ccc(F)cc1
inactive: [2] 16.6 µM | [3] 15.6 µM | [4] 24.7 µM | [5] 18.2 µM | [6] 14.3 µM | [7] 2.05 µM | [8] 1.94 µM | [9] 17.4 µM | [10] 1.5 µM | [11] 17.7 µM | [12] 4.06 µM | [13] 16.9 µM | [14] 8.22 µM | [15] 2.04 µM | [16] 5.18 µM | [17] 8.26 µM | [18] 5.87 µM | [19] 1.68 µM | [20] 11.2 µM

COc1ccc(C2=C(N)c3cc(OC)ccc3C2=O)cc1
inactive: [1] > 100 µM | [2] 29.2 µM | [3] > 100 µM | [4] 4.25 µM | [5] 55.7 µM | [6] > 100 µM | [7] > 100 µM | [8] 38.2 µM | [9] > 100 µM | [11] > 100 µM | [12] > 100 µM | [13] > 100 µM | [14] > 100 µM | [15] > 100 µM | [16] > 100 µM | [17] > 100 µM | [18] > 100 µM | [19] 23.8 µM | [20] > 100 µM

CN(CCCNC(=O)c1c2ccc3ccccc3c2nn1C)CCCNC(=O)c1c2ccc3ccccc3c2nn1C
inactive: [1] 1.6 µM | [2] 8.13 µM | [3] 7.85 µM | [4] 14.2 µM | [5] 15.1 µM | [6] 1.9 µM | [7] 3.15 µM | [8] 1.95 µM | [9] 12.4 µM | [10] 3.48 µM | [11] 5.04 µM | [12] 2.05 µM | [13] 6.24 µM | [14] 16 µM | [15] 2.53 µM | [16] 11.6 µM | [17] 2.96 µM | [18] 12.4 µM | [19] 3 µM | [20] 10.6 µM

COc1cc(C(=O)CBr)c(OC)cc1C
inactive: [1] > 100 µM | [2] > 100 µM | [3] > 100 µM | [4] 72.4 µM | [5] > 100 µM | [6] > 100 µM | [7] > 100 µM | [8] > 100 µM | [9] > 100 µM | [10] > 100 µM | [11] > 100 µM | [12] > 100 µM | [13] > 100 µM | [15] > 100 µM | [16] > 100 µM | [17] > 100 µM | [18] > 100 µM | [19] > 100 µM | [20] 36.2 µM

N=C(N)Nc1ccc(CC(N)C(=O)O)cc1 (stereo not drawn)
inactive: [1] > 12.5 µM | [2] > 12.5 µM | [3] > 12.5 µM | [4] > 12.5 µM | [5] > 12.5 µM | [6] > 12.5 µM | [7] > 12.5 µM | [8] > 12.5 µM | [9] > 12.5 µM | [10] > 12.5 µM | [11] > 12.5 µM | [12] > 12.5 µM | [14] > 12.5 µM | [15] > 12.5 µM | [16] > 12.5 µM | [17] > 12.5 µM | [18] > 12.5 µM | [19] > 12.5 µM | [20] > 12.5 µM

COc1cc2c(cc1OC)C1c3ccccc3CCCN1CC2 (stereo not drawn)
inactive: [1] > 100 µM | [2] > 100 µM | [3] > 100 µM | [4] > 100 µM | [5] > 100 µM | [6] > 100 µM | [7] > 100 µM | [8] 46.7 µM | [9] > 100 µM | [10] > 100 µM | [11] > 100 µM | [12] > 100 µM | [13] > 100 µM | [14] > 100 µM | [15] 51.2 µM | [16] > 100 µM | [17] > 100 µM | [18] > 100 µM | [19] > 100 µM | [20] > 100 µM

c1ccc2c(c1)CCN1CCc3c([nH]c4ccccc34)C21 (stereo not drawn)
inactive: [1] 30.3 µM | [2] 26.5 µM | [3] 34.2 µM | [4] 53.2 µM | [5] 38.8 µM | [6] 24.4 µM | [7] 22.8 µM | [8] 23 µM | [9] 26.6 µM | [10] 20.5 µM | [11] 23 µM | [12] 16.7 µM | [13] 49 µM | [14] 24 µM | [15] 26.9 µM | [16] 38.3 µM | [17] 25.1 µM | [18] 32.7 µM | [19] 24.4 µM | [20] 27.3 µM
